Experimental data from patent publication US20050089473A1, “Potassium channel mediated delivery of agents through the blood-brain barrier” (Cedars-Sinai Medical Center, priority 2003, published 2005).
Structures can show the parent of a compound that is named as a salt.

What was measured:
[1] = test system: intracranial human glial tumors; assay: Survival study, nude mice with intracranial human glial tumors; assay type: in vivo, mouse; settings: i.v., three consecutive doses for three days
Description: GBM-xenograft rat and mouse models were developed by intracranially implanting primary GBM cells isolated from patient brain tumor tissue. […] To investigate whether MS administration by intracarotid (i.c.) and intravenous (i.v.) routes, increases BTB permeability to different tracers, and enhances delivery to brain tumor, permeability studies were performed.
Nude mice were intracranially implanted with cells. The tumor was allowed to grow for 7 days before treatment was initiated.

[2] = test system: metastatic lung brain tumors; assay: [14C]AIB uptake in metastatic lung brain tumor model; assay type: in vivo; settings: intravenous co-injection
KATP channels = assay: Membrane potential assay of KATP channel activity; assay type: cell-based, human; settings: RBEC, HBMVEC, RG2 and GBM cells
Description: Functional activities of putative KATP channels in HBMVEC and GBM cells were measured by detecting changes in voltage across the cell membrane as described earlier (Ningarsj, N. S., Rao, M., Hashizume, K., Asotra, K., and Black, K. L. Regulation of blood-brain tumor barrier permeability by calcium-activated potassium channels J. Pharmacol. Exp. Ther., 301:838-851, 2002). A membrane potential assay kit (Molecular Devices, Sunnyvale, Calif.) provided a fast, simple and consistent mix-and-read procedure. In brief, HBMVEC and GBM cells obtained from cell passages 2-5 was suspended in 5 ml of growth medium. In two separate experiments, the cell density was adjusted to 1×10^3 cells/well and coated in sterile, clear bottom, blank 96-well plates (Corning, Inc., Acton, Mass.), pre-coated with poly L-Lysine, and allowed to achieve a monolayer within 24 h. The monolayer cells were incubated with the membrane potential assay kit reagents for 30 min and read directly by FLEXstation. The anionic pchemiometric dye that traverses between cells and the extracellular solution in a membrane potential-dependent manner serves as an indicator of vasomodulator-induced voltage changes across the cell membrane. […] Additionally, the effects of the optimum dose (10 μM) of MS and glibenclamide (100 nM) on KATP channels activity in HBMVEC and GBM cells were determined.

## Nc1cc(N2CCCCC2)nc(N)[n+]1OS(=O)(=O)[O-] [MS, minoxidil sulfate]
[1]
  Mean survival: 27.09 ± 8.7 days
[2]
  Increase of [14C]AIB uptake to the tumor: approximately three-fold
KATP channels
  Membrane potential dye fluorescence intensity: dose-dependent decrease
